SMILES strings stand for the structures.

Broadly, the IC50 is the point on the concentration scale where inhibition reaches its midpoint.

The first test has as its target T1, SARM1 (Homo sapiens, UniProt Q6SZW1).
T1 construct: AviTag […]; made in house; host or cells: NRK1-HEK293T cells, transiently transfected; the clarified sonicated lysate was used without purification
T1 sequence (Q6SZW1 with tags, fused parts or gaps): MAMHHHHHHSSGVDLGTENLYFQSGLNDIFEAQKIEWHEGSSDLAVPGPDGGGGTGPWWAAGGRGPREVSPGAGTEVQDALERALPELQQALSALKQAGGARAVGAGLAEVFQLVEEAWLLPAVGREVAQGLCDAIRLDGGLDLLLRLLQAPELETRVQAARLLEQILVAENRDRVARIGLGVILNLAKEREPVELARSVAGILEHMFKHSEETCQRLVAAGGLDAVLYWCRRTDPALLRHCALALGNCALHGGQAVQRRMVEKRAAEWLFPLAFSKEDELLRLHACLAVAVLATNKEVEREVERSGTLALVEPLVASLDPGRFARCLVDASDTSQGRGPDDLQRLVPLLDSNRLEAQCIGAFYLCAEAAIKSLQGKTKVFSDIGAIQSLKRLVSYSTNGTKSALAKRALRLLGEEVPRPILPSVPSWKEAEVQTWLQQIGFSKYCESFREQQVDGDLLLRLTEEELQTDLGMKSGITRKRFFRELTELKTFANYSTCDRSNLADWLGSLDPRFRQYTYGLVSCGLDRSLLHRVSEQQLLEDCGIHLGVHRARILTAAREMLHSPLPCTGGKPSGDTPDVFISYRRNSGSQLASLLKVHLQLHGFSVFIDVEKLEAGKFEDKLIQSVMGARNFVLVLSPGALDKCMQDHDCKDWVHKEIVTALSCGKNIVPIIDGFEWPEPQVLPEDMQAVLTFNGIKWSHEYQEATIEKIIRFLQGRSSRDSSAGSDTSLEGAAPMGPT
As to the kind of experiment: ARM-SAM-TIR SARM1 IC50 assay (NADase activity, NAD+ cleavage). In kind it is biochemical.
Conditions: not given
From the text: This Example describes an assay of ARM-SAM-TTR NADase activity and use of this assay to measure the efficacy of compounds of Formula I or Formula II to block SARM1 mediated NAD+ cleavage. This assay is optimized in such a way as to characterize the efficacy of the compounds in Formula I or Formula II to inhibit SARM1 activity and to calculate an IC50 value for each compound. This assay makes use of full length SARI, which encompasses the ARM, SAM and TTR domains.
Preparation of ARM-SAM-TIR Lysate (STL)
NRK1-HEK293T cells were seeded onto 150 cm^2 plates at 20×10^6 cells per plate. The next day, the cells were transfected with 15 μg ARM-SAM-TIR expression plasmid, SEQ ID NO: 1.
The cultures were supplemented with 1 mM NR at time of transfection to minimize toxicity from ARM-SAM-TIR overexpression. Forty-eight hours after transfection, cells were harvested, pelleted by centrifugation at 1,000 rpm (Sorvall ST 16R centrifuge, Thermo Fisher), and washed once with cold PBS (0.01 M phosphate buffered saline NaCl 0.138 M; KCl 0.0027 M; pH 7.4). The cells were resuspended in PBS with protease inhibitors (cOmplete™ protease inhibitor cocktail, Roche product #11873580001) and cell lysates were prepared by sonication (Branson Sonifer 450, output=3, 20 episodes of stroke). The lysates were centrifuged (12,000×g for 10 min at 4° C.) to remove cell debris and the supernatants (containing ARM-SAM-TIR protein) were stored at −80° C. for later use in the in vitro ARM-SAM-TIR NADase assay (see below). Protein concentration was determined by the Bicinchoninic (BCA) method and used to normalize lysate concentrations.
ARM-SAM-TIR IC50 Assay of Formula I or Formula II Compounds.
The enzymatic assay was performed in a 384-well polypropylene plate in Dulbecco's PBS buffer in a final assay volume of 20 μL. ARM-SAM-TIR lysate with a final concentration of 5 μg/mL was pre-incubated with the respective compound at 1% DMSO final assay concentration over 2 h at room temperature. The reaction was initiated by addition of 5 μM final assay concentration of NAD+ as substrate. After a 2 hr room temperature incubation, the reaction was terminated with 40 μL of stop solution of 7.5% trichloroactetic acid in acetonitrile. The NAD+ and ADPR concentrations were analyzed by a RapidFire High Throughput Mass Spectrometry System (Agilent Technologies, Santa Clara, CA) using an API4000 triple quadrupole mass spectrometer (AB Sciex Framingham, MA).
Compound `N#Cc1cc(N2C3CNCC2C3)nc2ccc(Cl)cc12` [Example 72] displayed a concentration for half-maximal inhibition (IC50) of less than 5 µM. For `N#Cc1cc(N2CC3CC(C2)N3)nc2ccc(Cl)cc12` [Example 73], the IC50 is less than 5 µM. The compound `N#Cc1cc(N2CC3CCC2CN3)nc2ccc(Cl)cc12` (stereo not shown) [Example 74] showed a half-maximal inhibitory concentration (IC50) of less than 5 µM. On to `N#Cc1cc(N2C[C@H]3C[C@@H]2CN3)nc2ccc(Cl)cc12` [Example 84], for which the IC50 is 5 to 15 µM. The compound `CC(C)(C)OC(=O)N1C2CC1CN(c1cc(C#N)c3cc(Cl)ccc3n1)C2` [Example 91] had an IC50 of less than 5 µM.

The test is the same for the next values; noted with them: ARM-SAM-TIR lysate 5 μg/mL from NRK1-HEK293T cells; 2 h pre-incubation with compound, 5 μM NAD+, 2 hr room temperature; NAD+ and ADPR by RapidFire mass spectrometry; read-out: SARM1 IC50.
`N#Cc1cc(N2CCC(C(N)=O)C2)nc2ccc(Cl)cc12` (stereo not shown) [Example 67]: the IC50 was less than 5 µM. `CNC(=O)C1CCN(c2cc(C#N)c3cc(Cl)ccc3n2)C1` (stereo not shown) [Example 68]: the half-maximal inhibitory concentration (IC50) lay within 5 to 15 µM. Turning to `CN(C)C(=O)C1CCN(c2cc(C#N)c3cc(Cl)ccc3n2)C1` (stereo not shown) [Example 69], the IC50 was less than 5 µM.

Regarding `N#Cc1cc(N)nc2ccc(Cl)cc12` [Example 70], the IC50 lay in the range of 15 to 30 µM. As to `N#Cc1cc(N2CCCC2)nc2cc(F)c(Cl)cc12` [Example 71], the IC50 was less than 5 µM.

In the case of `N#Cc1cc(N2CCC(O)CC2)nc2ccc(Cl)cc12` [Example 75], the IC50 is less than 5 µM.

`N#Cc1cc(N2CCOCC2)nc2ccc(Cl)cc12` [Example 76]: the IC50 is less than 5 µM. As to `N#Cc1cc(N2CCC[C@H](O)C2)nc2ccc(Cl)cc12` [Example 77], the IC50 is less than 5 µM. On the same count and under the same terms, with `N#Cc1cc(N2CCC[C@H](C(N)=O)C2)nc2ccc(Cl)cc12` [Example 78] the figure was less than 5 µM; with `CNC(=O)[C@H]1CCCN(c2cc(C#N)c3cc(Cl)ccc3n2)C1` [Example 79], less than 5 µM; with `CN(C)C(=O)[C@H]1CCCN(c2cc(C#N)c3cc(Cl)ccc3n2)C1` [Example 80], less than 5 µM. For `C[C@@H]1CCC[C@H](C)N1c1cc(C#N)c2cc(Cl)ccc2n1` [Example 81], the IC50 was less than 5 µM. Consider `C[C@@H]1CCCCN1c1cc(C#N)c2cc(Cl)ccc2n1` [Example 82], for which the IC50 is less than 5 µM. In the case of `C[C@H]1CCCCN1c1cc(C#N)c2cc(Cl)ccc2n1` [Example 83], the half-inhibitory concentration (IC50) is less than 5 µM. For the compound `N#Cc1cc(N2CCC[C@@H](N)C2)nc2ccc(Cl)cc12` [Example 85], the concentration for half-maximal inhibition (IC50) was in the range of 5 to 15 µM. Regarding `Cn1cc(-c2cc(C#N)c3cc(Cl)ccc3n2)cn1` [Example 86], the 50% inhibitory concentration (IC50) was 5 to 15 µM.

`N#Cc1cc(-c2cccnc2)nc2ccc(Cl)cc12` [Example 87]: the IC50 lay within 15 to 30 µM. For the compound `C#CCCC1(CCNC2CCN(c3cc(C#N)c4cc(Cl)ccc4n3)CC2)N=N1` [Example 88], the half-maximal inhibitory concentration (IC50) was less than 5 µM. Take `N#Cc1cc(N2CCCCC2)nc2cc(F)c(Cl)cc12` [Example 89]: the IC50 was less than 5 µM. On the same count and under the same terms, as for `N#Cc1c(Cl)c(N2CC[C@@H](O)C2)nc2ccc(Cl)cc12` [Example 90], the figure is less than 5 µM. Take `N#Cc1cc(N2CCSCC2)nc2ccc(Cl)cc12` [Example 92]: the IC50 was less than 5 µM. `CC(C)(C)OC(=O)NC1CCN(c2cc(C#N)c3cc(C4=CCOC4)ccc3n2)CC1` [Example 93]: the concentration for half-maximal inhibition (IC50) is less than 5 µM. Turning to `CC(C)(C)OC(=O)NC1CCN(c2cc(C#N)c3cc(C4CCOC4)ccc3n2)CC1` (stereo not shown) [Example 94], the half-inhibitory concentration (IC50) is less than 5 µM. Turning to `N#Cc1cc(N2CCCC[C@H]2CO)nc2ccc(Cl)cc12` [Example 95], the IC50 is less than 5 µM. Turning to `C[C@@H]1CCC[C@H](C)N1c1cc(C#N)c2cc(Br)ccc2n1` [Example 96], the IC50 is less than 5 µM. On to `CC1(O)CCCN(c2cc(C#N)c3cc(Br)ccc3n2)C1` (stereo not shown) [Example 97], for which the IC50 was less than 5 µM.

`N#Cc1cc(N2CCCCC2C2CC2)nc2ccc(Cl)cc12` (stereo not shown) [Example 98]: the IC50 is less than 5 µM. Still for that read-out and setting: with `N#Cc1cc(N2CC[C@H](N)C(F)C2)nc2ccc(Br)cc12` (stereo partly shown) [Example 99] the figure was less than 5 µM; with `N#Cc1cc(N2CCC[C@H](C(=O)N3CCCC3)C2)nc2ccc(Br)cc12` [Example 100], less than 5 µM. As to `N#Cc1cc(N2CCC[C@H](C(=O)N3CCOCC3)C2)nc2ccc(Br)cc12` [Example 101], the IC50 is less than 5 µM. The same measure, in the same setting: with `COCCNC(=O)[C@H]1CCCN(c2cc(C#N)c3cc(Br)ccc3n2)C1` [Example 102] the figure was less than 5 µM; with `N#Cc1cc(N2CCC[C@H](C(=O)NCC3CC3)C2)nc2ccc(Br)cc12` [Example 103], less than 5 µM; with `N#Cc1cc(N2CCC(C(=O)N3CCOCC3)CC2)nc2ccc(Br)cc12` [Example 104], less than 5 µM. Same read-out and setting: with `N#Cc1cc(N2CCC(C(=O)NCC3CC3)CC2)nc2ccc(Br)cc12` [Example 105] the figure was 5 to 15 µM. For `N#Cc1cc(N2CCC[C@H](NC(=O)C3CC3)C2)nc2ccc(Br)cc12` [Example 106], the IC50 was less than 5 µM. `N#Cc1cc(N2CCC[C@H](NCc3ccccc3)C2)nc2ccc(Br)cc12` [Example 107]: the IC50 is less than 5 µM.

`N#Cc1cc(N2CCC[C@H](NCC3CC3)C2)nc2ccc(Br)cc12` [Example 108]: the concentration for half-maximal inhibition (IC50) is less than 5 µM.

As for `N#Cc1cc(N2CCC[C@H](N3CCCC3=O)C2)nc2ccc(Br)cc12` [Example 109], the IC50 is less than 5 µM. For the compound `CS(=O)(=O)N[C@H]1CCCN(c2cc(C#N)c3cc(Br)ccc3n2)C1` [Example 110], the 50% inhibitory concentration (IC50) was less than 5 µM. On to `C#CCCC1(CCNc2cc(C#N)c3cc(Cl)ccc3n2)N=N1` [Example 111], for which the 50% inhibitory concentration (IC50) is less than 5 µM. For `COCCN(C)C(=O)[C@H]1CCCN(c2cc(C#N)c3cc(Br)ccc3n2)C1` [Example 112], the 50% inhibitory concentration (IC50) is less than 5 µM. The same measure, in the same setting: with `N#Cc1cc(N2CCC(NCc3ccccc3)CC2)nc2ccc(Br)cc12` [Example 113] the figure was less than 5 µM. Take `CC(=O)NC1(C)CCN(c2cc(C#N)c3cc(Br)ccc3n2)CC1` [Example 114]: the IC50 is less than 5 µM. As to `CN(CC1CC1)C(=O)[C@H]1CCCN(c2cc(C#N)c3cc(Br)ccc3n2)C1` [Example 115], the half-maximal inhibitory concentration (IC50) was less than 5 µM. The same measure, in the same setting: as for `CN(Cc1ccccc1)C(=O)[C@H]1CCCN(c2cc(C#N)c3cc(Br)ccc3n2)C1` [Example 116], the figure is less than 5 µM; as for `CS(=O)(=O)NC1CCN(c2cc(C#N)c3cc(Br)ccc3n2)CC1` [Example 117], less than 5 µM. For `CC1(NS(C)(=O)=O)CCN(c2cc(C#N)c3cc(Br)ccc3n2)CC1` [Example 118], the half-inhibitory concentration (IC50) was less than 5 µM.

On to `CC(=O)N[C@@]1(C)CCCN(c2cc(C#N)c3cc(Br)ccc3n2)C1` [Example 119], for which the half-inhibitory concentration (IC50) was less than 5 µM.

With `C[C@]1(NS(C)(=O)=O)CCCN(c2cc(C#N)c3cc(Br)ccc3n2)C1` [Example 120], the IC50 was less than 5 µM. As to `CC(=O)N[C@]1(C)CCCN(c2cc(C#N)c3cc(Br)ccc3n2)C1` [Example 121], the IC50 is less than 5 µM. On the same count and under the same terms, with `C[C@@]1(NS(C)(=O)=O)CCCN(c2cc(C#N)c3cc(Br)ccc3n2)C1` [Example 122] the figure was less than 5 µM; with `COCCN(C)C(=O)C1CCN(c2cc(C#N)c3cc(Br)ccc3n2)CC1` [Example 123], less than 5 µM; with `CN(CC1CC1)C(=O)C1CCN(c2cc(C#N)c3cc(Br)ccc3n2)CC1` [Example 124], less than 5 µM.

(Values after patent US12441719B2, “Inhibitors of SARM1” (Disarm Therapeutics, Inc., priority 2019, dated 2025).)
